Values quoted from earlier work, collected in US6953823B2, “Elastomeric insulating composition for a solid propellant rocket motor” (Chung Shan Institute of Science and Technology, priority 2003, dated 2005).

Test system: rats

## [OH-].[OH-].[OH-].[OH-].[OH-].[OH-].[Sn+4].[Zn+2] [Zinc Hydroxystannate, zinc hydroxystannate]
  Oral Toxicity (LD50, rats): >5 gr/kg
